Test results: ChEMBL document CHEMBL1681783 (Bioorg Med Chem, 2011)

Columns and labels:
[1] = biological target: T1, Squalene synthase (Homo sapiens, UniProt P37268)
T1 sequence (P37268 whole entry): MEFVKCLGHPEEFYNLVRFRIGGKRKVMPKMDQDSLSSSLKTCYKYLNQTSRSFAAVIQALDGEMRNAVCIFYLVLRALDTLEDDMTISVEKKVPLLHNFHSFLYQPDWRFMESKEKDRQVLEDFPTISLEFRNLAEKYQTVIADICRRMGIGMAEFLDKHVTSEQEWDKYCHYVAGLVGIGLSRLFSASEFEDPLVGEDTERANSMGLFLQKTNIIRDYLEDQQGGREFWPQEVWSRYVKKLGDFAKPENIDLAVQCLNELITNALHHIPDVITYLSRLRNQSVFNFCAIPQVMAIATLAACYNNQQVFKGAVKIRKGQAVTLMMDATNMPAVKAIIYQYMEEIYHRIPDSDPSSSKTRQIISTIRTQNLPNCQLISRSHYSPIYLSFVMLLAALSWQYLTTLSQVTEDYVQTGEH
Description: Inhibition of squalene synthase

[2] = species: Rattus norvegicus; experiment: Inhibition of cholesterol synthesis in rat hepatic cells; format: functional, cell-based
[3] = Lipophilicity, log P of the compound; format: physicochemical; settings: octanol/water

SMILES	IC50 [1]	IC50 [2]	logP [3]
COC(=O)CCC(=O)N(CC(C)(C)C)c1ccc(Cl)cc1C(O)c1ccccc1Cl (configuration not stated)	1700 nM	–	–
CC(C)(C)CN(C(=O)CCC(=O)O)c1ccc(Cl)cc1C(O)c1ccccc1Cl (configuration not stated)	6500 nM	–	–
CC(C)(C)CN(C(=O)CCC(=O)N1CCC(C(=O)O)CC1)c1ccc(Cl)cc1C(O)c1ccccc1Cl (configuration not stated)	130 nM	250 nM	–
CN(C)C(=O)C1CCN(C(=O)CCC(=O)N(CC(C)(C)C)c2ccc(Cl)cc2C(O)c2ccccc2Cl)CC1 (configuration not stated)	97 nM	–	–
CNC(=O)C1CCN(C(=O)CCC(=O)N(CC(C)(C)C)c2ccc(Cl)cc2C(O)c2ccccc2Cl)CC1 (configuration not stated)	1.3 nM	900 nM	–
CC(C)(C)CN(C(=O)CCC(=O)N1CCC(C(N)=O)CC1)c1ccc(Cl)cc1C(O)c1ccccc1Cl (configuration not stated)	280 nM	–	–
CCNC(=O)C1CCN(C(=O)CCC(=O)N(CC(C)(C)C)c2ccc(Cl)cc2C(O)c2ccccc2Cl)CC1 (configuration not stated)	2.4 nM	–	–
CC(C)NC(=O)C1CCN(C(=O)CCC(=O)N(CC(C)(C)C)c2ccc(Cl)cc2C(O)c2ccccc2Cl)CC1 (configuration not stated)	3.7 nM	1600 nM	–
CCCCNC(=O)C1CCN(C(=O)CCC(=O)N(CC(C)(C)C)c2ccc(Cl)cc2C(O)c2ccccc2Cl)CC1 (configuration not stated)	1.6 nM	2000 nM	–
CCOC(=O)C1CCCN(C(=O)CCC(=O)N(CC(C)(C)C)c2ccc(Cl)cc2C(O)c2ccccc2Cl)C1 (configuration not stated)	410 nM	–	–
CC(C)(C)CN(C(=O)CCC(=O)N1CCCC(C(=O)O)C1)c1ccc(Cl)cc1[C@H](O)c1ccccc1Cl (some centres not stated)	20 nM	270 nM	2.98
CC(C)(C)CN(C(=O)CCC(=O)NCC1CCCCC1)c1ccc(Cl)cc1C(O)c1ccccc1Cl (configuration not stated)	220 nM	2600 nM	–
CCOC(=O)N1CCN(C(=O)CCC(=O)N(CC(C)(C)C)c2ccc(Cl)cc2C(O)c2ccccc2Cl)CC1 (configuration not stated)	2.3 nM	–	–
CC(C)(C)CN(C(=O)CCC(=O)N1CCN(C(=O)OCc2ccccc2)CC1)c1ccc(Cl)cc1C(O)c1ccccc1Cl (configuration not stated)	1.1 nM	–	–
CC(C)(C)CN(C(=O)CCC(=O)N1CCNCC1)c1ccc(Cl)cc1C(O)c1ccccc1Cl (configuration not stated)	2100 nM	–	–
CC(C)(C)CN(C(=O)CCC(=O)N1CCN(S(C)(=O)=O)CC1)c1ccc(Cl)cc1C(O)c1ccccc1Cl (configuration not stated)	260 nM	–	–
CCOC(=O)CN1CCN(C(=O)CCC(=O)N(CC(C)(C)C)c2ccc(Cl)cc2C(O)c2ccccc2Cl)CC1 (configuration not stated)	7.9 nM	1400 nM	–
CCOC(=O)C1CCN(C(=O)CCCC(=O)N(CC(C)(C)C)c2ccc(Cl)cc2C(O)c2ccccc2Cl)CC1 (configuration not stated)	> 6000 nM	–	–
CCOC(=O)C1CCN(C(=O)CC(=O)N(CC(C)(C)C)c2ccc(Cl)cc2C(O)c2ccccc2Cl)CC1 (configuration not stated)	> 600 nM	–	–
CCOC(=O)C1CCN(C(=O)CCC(=O)N(C)c2ccc(Cl)cc2C(O)c2ccccc2Cl)CC1 (configuration not stated)	21000 nM	–	–
CCCN(C(=O)CCC(=O)N1CCC(C(=O)OCC)CC1)c1ccc(Cl)cc1C(O)c1ccccc1Cl (configuration not stated)	600 nM	–	–

SMILES	IC50 [1]	IC50 [2]	logP [3]
CCOC(=O)C1CCN(C(=O)CCC(=O)N(CC(C)(C)C)c2ccc(Cl)cc2Cc2ccccc2Cl)CC1	650 nM	–	–
CCOC(=O)C1CCN(C(=O)CCC(=O)N(CC(C)(C)C)c2ccc(Cl)cc2CO)CC1	> 6000 nM	–	–
CCOC(=O)C1CCN(C(=O)CCC(=O)N(CC(C)(C)C)c2ccc(Cl)cc2C(O)c2ccccc2)CC1 (configuration not stated)	770 nM	–	–
CCOC(=O)C1CCN(C(=O)CCC(=O)N(CC(C)(C)C)c2ccc(Cl)cc2C(O)c2ccccc2F)CC1 (configuration not stated)	0.45 nM	–	–
CCOC(=O)C1CCN(C(=O)CCC(=O)N(CC(C)(C)C)c2ccc(Cl)cc2C(O)c2cccc(F)c2Cl)CC1 (configuration not stated)	7.2 nM	–	–
CCOC(=O)C1CCN(C(=O)CCC(=O)N(CC(C)(C)C)c2ccc(Cl)cc2C(O)c2ccc(F)cc2Cl)CC1 (configuration not stated)	2 nM	–	–
CCOC(=O)C1CCN(C(=O)CCC(=O)N(CC(C)(C)C)c2ccc(Cl)cc2C(O)c2cc(F)ccc2Cl)CC1 (configuration not stated)	> 600 nM	–	–
CCOC(=O)C1CCN(C(=O)CCC(=O)N(CC(C)(C)C)c2ccc(Cl)cc2C(O)c2ccccc2OC)CC1 (configuration not stated)	1.1 nM	–	–
CCOC(=O)C1CCN(C(=O)CCC(=O)N(CC(C)(C)C)c2ccc(Cl)cc2C(O)c2cccc(OC)c2)CC1 (configuration not stated)	210 nM	–	–
CCOC(=O)C1CCN(C(=O)CCC(=O)N(CC(C)(C)C)c2ccc(Cl)cc2C(O)c2ccccc2OCC)CC1 (configuration not stated)	410 nM	–	–
CCOC(=O)C1CCN(C(=O)CCC(=O)N(CC(C)(C)C)c2ccc(Cl)cc2C(O)c2cccc(OC)c2OC)CC1 (configuration not stated)	1.1 nM	–	–
CCOC(=O)C1CCN(C(=O)CCC(=O)N(CC(C)(C)C)c2ccc(Cl)cc2C(O)c2cccc3c2OCCO3)CC1 (configuration not stated)	10 nM	–	–
CCOC(=O)C1CCCN(C(=O)CCC(=O)N(CC(C)(C)C)c2ccc(Cl)cc2C(O)c2ccccc2F)C1 (configuration not stated)	> 600 nM	–	–
CCOC(=O)C1CCCN(C(=O)CCC(=O)N(CC(C)(C)C)c2ccc(Cl)cc2C(O)c2cccc(F)c2Cl)C1 (configuration not stated)	28 nM	–	–
CCOC(=O)C1CCCN(C(=O)CCC(=O)N(CC(C)(C)C)c2ccc(Cl)cc2C(O)c2ccc(F)cc2Cl)C1 (configuration not stated)	> 600 nM	–	–
CCOC(=O)C1CCCN(C(=O)CCC(=O)N(CC(C)(C)C)c2ccc(Cl)cc2C(O)c2cc(F)ccc2Cl)C1 (configuration not stated)	> 600 nM	–	–
CCOC(=O)C1CCCN(C(=O)CCC(=O)N(CC(C)(C)C)c2ccc(Cl)cc2C(O)c2ccccc2OC)C1 (configuration not stated)	2.6 nM	–	–
CCOC(=O)C1CCCN(C(=O)CCC(=O)N(CC(C)(C)C)c2ccc(Cl)cc2C(O)c2cccc(OC)c2)C1 (configuration not stated)	> 600 nM	–	–
CCOC(=O)C1CCCN(C(=O)CCC(=O)N(CC(C)(C)C)c2ccc(Cl)cc2C(O)c2ccccc2OCC)C1 (configuration not stated)	> 600 nM	–	–
CCOC(=O)C1CCCN(C(=O)CCC(=O)N(CC(C)(C)C)c2ccc(Cl)cc2C(O)c2cccc(OC)c2OC)C1 (configuration not stated)	1.3 nM	–	–
CCOC(=O)C1CCCN(C(=O)CCC(=O)N(CC(C)(C)C)c2ccc(Cl)cc2C(O)c2cccc3c2OCCO3)C1 (configuration not stated)	13 nM	–	–

SMILES	IC50 [1]	IC50 [2]	logP [3]
CC(C)(C)CN(C(=O)CCC(=O)N1CCC(C(=O)O)CC1)c1ccc(Cl)cc1C(O)c1ccccc1F (configuration not stated)	1700 nM	> 10000 nM	–
CC(C)(C)CN(C(=O)CCC(=O)N1CCC(C(=O)O)CC1)c1ccc(Cl)cc1C(O)c1cccc(F)c1Cl (configuration not stated)	17 nM	920 nM	–
CC(C)(C)CN(C(=O)CCC(=O)N1CCC(C(=O)O)CC1)c1ccc(Cl)cc1C(O)c1ccc(F)cc1Cl (configuration not stated)	> 600 nM	–	–
CC(C)(C)CN(C(=O)CCC(=O)N1CCC(C(=O)O)CC1)c1ccc(Cl)cc1C(O)c1cc(F)ccc1Cl (configuration not stated)	> 600 nM	–	–
COc1ccccc1C(O)c1cc(Cl)ccc1N(CC(C)(C)C)C(=O)CCC(=O)N1CCC(C(=O)O)CC1 (configuration not stated)	1.7 nM	600 nM	–
COc1cccc(C(O)c2cc(Cl)ccc2N(CC(C)(C)C)C(=O)CCC(=O)N2CCC(C(=O)O)CC2)c1 (configuration not stated)	> 600 nM	–	–
CCOc1ccccc1C(O)c1cc(Cl)ccc1N(CC(C)(C)C)C(=O)CCC(=O)N1CCC(C(=O)O)CC1 (configuration not stated)	> 600 nM	–	–
COc1cccc(C(O)c2cc(Cl)ccc2N(CC(C)(C)C)C(=O)CCC(=O)N2CCC(C(=O)O)CC2)c1OC (configuration not stated)	2.8 nM	1600 nM	–
CC(C)(C)CN(C(=O)CCC(=O)N1CCC(C(=O)O)CC1)c1ccc(Cl)cc1C(O)c1cccc2c1OCCO2 (configuration not stated)	7 nM	230 nM	–
CC(C)(C)CN(C(=O)CCC(=O)N1CCCC(C(=O)O)C1)c1ccc(Cl)cc1C(O)c1ccccc1 (configuration not stated)	–	–	2.42
CC(C)(C)CN(C(=O)CCC(=O)N1CCCC(C(=O)O)C1)c1ccc(Cl)cc1C(O)c1ccccc1F (configuration not stated)	290 nM	200 nM	2.52
CC(C)(C)CN(C(=O)CCC(=O)N1CCCC(C(=O)O)C1)c1ccc(Cl)cc1C(O)c1cccc(F)c1Cl (configuration not stated)	8.4 nM	1300 nM	3
CC(C)(C)CN(C(=O)CCC(=O)N1CCCC(C(=O)O)C1)c1ccc(Cl)cc1C(O)c1ccc(F)cc1Cl (configuration not stated)	190 nM	–	3.28
CC(C)(C)CN(C(=O)CCC(=O)N1CCCC(C(=O)O)C1)c1ccc(Cl)cc1C(O)c1cc(F)ccc1Cl (configuration not stated)	> 600 nM	–	2.8
COc1ccccc1C(O)c1cc(Cl)ccc1N(CC(C)(C)C)C(=O)CCC(=O)N1CCCC(C(=O)O)C1 (configuration not stated)	–	84 nM	2.81
COc1cccc(C(O)c2cc(Cl)ccc2N(CC(C)(C)C)C(=O)CCC(=O)N2CCCC(C(=O)O)C2)c1 (configuration not stated)	> 600 nM	–	2.35
CCOc1ccccc1C(O)c1cc(Cl)ccc1N(CC(C)(C)C)C(=O)CCC(=O)N1CCCC(C(=O)O)C1 (configuration not stated)	> 600 nM	–	3.32
COc1cccc(C(O)c2cc(Cl)ccc2N(CC(C)(C)C)C(=O)CCC(=O)N2CCCC(C(=O)O)C2)c1OC (configuration not stated)	2 nM	1500 nM	2.25
CC(C)(C)CN(C(=O)CCC(=O)N1CCCC(C(=O)O)C1)c1ccc(Cl)cc1C(O)c1cccc2c1OCCO2 (configuration not stated)	6.8 nM	170 nM	1.87
